Measurements reported in patent publication US4264598A (priority 1980, dated 1981).

Legend:
Phytophthora infestans = assay type: in vivo, Phytophthora infestans (host: tomato, cultivar Bonny Best); settings: 250 ppm spray; inoculated one day later; approximately 7 days in greenhouse; relative to untreated check plants
Uronyces phaseoli tipica = assay: Leaf rust, % disease control; assay type: in vivo, Uronyces phaseoli tipica (host: pinto beans); settings: 250 ppm spray; inoculated thereafter; rated after about 14 days; relative to untreated check plants
Method: The leaf-rust was made using pinto beans. The pathogen was Uronyces phaseoli tipica. The pinto-bean plants were sprayed with a 250-ppm solution of the test compound in an acetone-water mixture containing a nonionic emulsifier. The treated plants were inoculated thereafter with the pathogen and then incubated in an environmental chamber for approximately 20 hours at 100% relative humidity and a temperature of 68°-70° F. The plants were then removed from the chamber, allowed to dry, and then maintained in a greenhouse at a 60-80% relative humidity. The rate of infection on the leaves was made after about 14 days. The percent disease control provided by a given test compound was based on the disease reduction relative to untreated check plants.

Erysiphe polygoni = assay: Powdery mildew, % disease control; assay type: in vivo, Erysiphe polygoni (host: bean seedlings, var. Bountiful); settings: 250 ppm spray; inoculated one day later; rated after about 10 days; relative to untreated check plants
Method: The powdery mildew test was made using bean seedlings (var. Bountiful) with well-developed primary leaves. The pathogen was Erysiphe polygoni. The bean seedlings were sprayed with a 250-ppm solution of the test compound in an acetone-water mixture containing a nonionic emulsifier. The treated plants were inoculated one day after spray application of the test compound with the pathogen. The plants were then maintained in a greenhouse at a 60-80% relative humidity and at a temperature of 68°-70° F. The rate of infection on the leaves was made after about 10 days. The percent disease control provided by a given test compound was based on the disease reduction relative to untreated check plants.

Septoria apii = assay type: in vivo, Septoria apii (host: celery, Utah); settings: 250 ppm (Table I default); approximately 48 hours incubation then approximately 14 days; relative to untreated check plants
[1] = system: Alternaria solani conidia; assay: Tomato early blight, % disease control; assay type: in vivo, Alternaria solani (host: tomato, variety Bonny Best); settings: 250 ppm spray; inoculated one day later; about 12 days; relative to untreated check plants
Method: Compounds of the invention were tested for the control of the Tomato Early Blight organism, Alternaria solani conidia. Tomato (variety Bonny Best) seedlings of 6 to 7 weeks old were used. The tomato plants were sprayed with a 250-ppm solution of the test compound in an acetone-and-water solution containing a small amount of a nonionic emulsifier. The sprayed plants were inoculated one day later with the organism, dried and maintained at 60-80% relative humidity for about 12 days. Percent disease control was based on the percent disease development on untreated check plants.

SMILES: C#CC1(N2CN(C3(C#C)CCCCC3)CN(C3(C#C)CCCCC3)C2)CCCCC1 [Compound 1, 1,3,5-TRI(1'-ETHYNYLCYCLOHEXYL)-HEXAHYDRO-1,3,5-TRIAZINE]
- Fungicidal efficacy, % control, TLB (Phytophthora infestans): 100%
- Fungicidal efficacy, % control, LR (Uronyces phaseoli tipica): 0%
- Fungicidal efficacy, % control, PM (Erysiphe polygoni): 37%
- Fungicidal efficacy, % control, CLB (Septoria apii): 74%
- Fungicidal efficacy, % control, TEB [1]: 100%

SMILES: C#CC(C)(C)N1CN(C(C)(C)C#C)CN(C(C)(C)C#C)C1 [Compound 2, 1,3,5-(1',1'-dimethyl-propargyl)-hexahydro-1,3,5-triazine]
- Fungicidal efficacy, % control, TLB (Phytophthora infestans): 0%
- Fungicidal efficacy, % control, LR (Uronyces phaseoli tipica): 0%
- Fungicidal efficacy, % control, PM (Erysiphe polygoni): 0%
- Fungicidal efficacy, % control, CLB (Septoria apii): 27%
- Fungicidal efficacy, % control, TEB [1]: 0%
